Reference: patent publication US5468772A, “Tripterinin compound and method” (Pharmagenesis, Inc., priority 1993, dated 1995)

Tests used:
[1] = test system: human peripheral blood lymphocytes; test: Suppression of human PBL proliferation in vitro ([3H]thymidine incorporation), with or without anti-CD3 (X-35); assay type: cell-based
Method: One measure of immunosuppression is suppression of stimulated peripheral blood lymphocyte (PBL) proliferation in vitro. In the assay detailed in Example 3, PBLs were activated in vitro by addition of anti-CD3 monoclonal antibody (X-35 antibody). At the same time, purified tripterinin or vehicle (control) was added to each culture, at selected concentrations. After 72 hours incubation, tritiated thymidine was added to the culture medium, and thymidine incorporation into DNA was assayed, as a measure of DNA synthesis associated with cell proliferation.
The ability of tripterifordin to inhibit anti-CD3 stimulated PBL proliferation was assayed at concentrations of 0, 0.78, 3.13, and 12.5 μg/ml, with the results shown in FIG. 9.
Human peripheral blood lymphocytes were prepared using an established method (Boyum). Human blood buffy coat samples, approximately 25 ml/donor, were obtained from the Stanford University Medical Center Blood Bank. Using sterile technique, the buffy coat samples were gently resuspended in a total volume of 100 ml with the addition of calcium and magnesium free Hank's balanced salt solution (HBSS, obtained from Gibco) at room temperature. A volume of 25 ml of the cell suspension was then layered onto 15 ml of Ficoll-Pacque (Pharmacia LKB Biotechnology, Inc.) in a 50 ml conical centrifuge tube. Tubes were centrifuged in a Beckman GPR tabletop centrifuge (GH-3.7 Rotor) at 400×g for 30 minutes at 15° C.
Following centrifugation, the PBL suspensions at the interfaces were transferred to new 50 ml tubes using a transfer pipette, and the PBL samples were resuspended in a total volume of 45 ml HBSS and centrifuged at 354×g for 10 minutes at 15° C. Supernatants were discarded. PBL's were resuspended in 10 ml HBSS, combined to make a total of 45 ml HBSS, and centrifuged at 265×g for 10 minutes at 15° C. The cell pellets were suspended in 10 ml of X-Vivo tissue culture medium (Bio Whittaker) and counted using a hemocytometer. Tissue culture medium was then added to achieve a final cell concentration of 1× 10^6 cells/ml. Additional dilutions were carried out as required for each assay.
Assays were carried out in 96 well sterile tissue culture plates (Costar 3790 and Costar 3595). A volume of 150 μl of X-Vivo medium or sterile distilled water was added to the outer wells of the plate to prevent evaporation of medium within the experimental wells. PBL's from 2 different donors were used in parallel in all experiments. A volume of 100 μl PBL suspension was added to each well using a multichannel pipette. Plates were incubated in an atmosphere of 93% air/7% CO2 in a tissue culture incubator at 37° C. X-35 (AMAC #0178), an anti CD-3 surface antigen antibody, was used at 5 ng/ml to stimulate PBL proliferation.
Tripterinin or tripterifordin was dissolved in ethanol (10 mg/ml) and then diluted in sterile X-Vivo tissue culture medium to obtain the final concentrations required for each experiment.
Four hours prior to the conclusion of incubation, 50 μl of X-Vivo tissue culture medium containing 8 μCi/ml [^3 H]Thymidine (Amersham, 49 Ci/mmol) was added to each tissue culture well. After 72 hours total incubation time, the cells were removed from the tissue culture wells and applied to filter paper using a cell harvester (Brandel Model MB-24). The filter paper was dried for one hour under a heat lamp and then cut into 1 cm discs. Each sample was placed in a scintillation vial containing 2 ml of scintillation fluid (Biosafe, Research Products International Corp.). Samples were counted in a Beckman LS 6000SC scintillation counter.

TNFα = TNFα production by PHA stimulated human PBLs (ELISA); assay type: cell-based; details: 24 h
Method: The effect of tripterinin on the production of the cytokines IL-1b, IL2, IL-6, IFNγ, and TNFα was assessed by measurement of the concentration of these cytokines in PHA stimulated human PBL cultures. Cytokine levels were measured by standard ELISA methods using commercially available kits, as detailed in Example 6. Briefly, assay buffer was added to each of the wells of a microtiter plate containing pre-bound anti-cytokine antibody, followed by addition of standard or sample solution, diluted appropriately for the cytokine concentration measured, followed by a second reporter-labeled antibody specific against the anti-cytokine antibody. […]
Cytokine measurements were carried out using commercially available ELISA assay kits (R&D Systems), in accordance with the supplier's protocols. In brief, 100 μl of the assay buffer supplied was added to each of the wells of a microtiter plate containing pre-bound anti-cytokine antibody, followed by 100 μl of standard or sample solution, diluted appropriately for the concentration range measured. […]
Following two hours incubation, the plates were washed four times with assay buffer, and the second antibody, anti-anti-cytokine-horseradish peroxidase (HRP), was added to each well in a volume of 200 μl. […] Optical density was determined using a Molecular Devices microtiter plate reader.

C[C@]12CCC[C@]3(COC1=O)[C@@H]2CC[C@@]12C[C@@H](CC[C@]13O)[C@](C)(O)C2 [tripterinin]
inhibition of PBL proliferation ([1]; 0.78 μg/ml tripterinin, unstimulated and anti-CD3 stimulated PBLs): substantially complete inhibition
Half maximal inhibition of PBL proliferation ([1]; FIG. 8, 72 h): approximately 0.5 μg/ml
inhibitory effect on PBL proliferation ([1]; stimulated and unstimulated (tripterinin), FIG. 9 (tripterifordin)): inhibited PBL proliferation
inhibition of PBL proliferation, dose dependence ([1]; unstimulated and anti-CD3 stimulated PBLs): dose dependent inhibition
decrease in TNFα production (TNFα; 0.7 μg/ml tripterinin): 93%
decrease in TNFα production (TNFα; 3.13 μg/ml tripterinin): 98%
